# Assay results published in ChEMBL document CHEMBL1201862, “PubChem BioAssay data set” (2004).
#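 Growth conditions: 96-well plates. Treatment: test compound, 48 hours, 5 concentrations. Analysis: linear interpolation between bracketing concentrations; unreached endpoints set to highest concentration. Abbreviation: GI50, concentration required for 50% inhibition of growth.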 The source made the active and inactive calls. Rule as the data show it: active = GI50 up to about 1.1 µM and inactive = higher.
# Key:
# Assay in all cases: growth of human tumour cells (NCI), 48 h
# A498 = tested on: A498
# ACHN = tested on: ACHN
# EKVX = tested on: EKVX
# HL-60 = tested on: HL-60
# K562 = tested on: K562
# MCF7 = tested on: MCF7
# MDA-MB-231 = tested on: MDA-MB-231
# MDA-MB-435 = tested on: MDA-MB-435
# Malme-3M = tested on: Malme-3M
# NCI-H23 = tested on: NCI-H23
# NCI-H460 = tested on: NCI-H460
# OVCAR-4 = tested on: OVCAR-4
# RXF 393 = tested on: RXF 393
# SK-MEL-28 = tested on: SK-MEL-28
# SK-MEL-5 = tested on: SK-MEL-5
# SN12C = tested on: SN12C
# SNB-19 = tested on: SNB-19
# U-251 = tested on: U-251
# UACC-257 = tested on: UACC-257
# UACC-62 = tested on: UACC-62
SMILES,GI50 (A498),GI50 (ACHN),GI50 (EKVX),GI50 (HL-60),GI50 (K562),GI50 (MCF7),GI50 (MDA-MB-231),GI50 (MDA-MB-435),GI50 (Malme-3M),GI50 (NCI-H23),GI50 (NCI-H460),GI50 (OVCAR-4),GI50 (RXF 393),GI50 (SK-MEL-28),GI50 (SK-MEL-5),GI50 (SN12C),GI50 (SNB-19),GI50 (U-251),GI50 (UACC-257),GI50 (UACC-62)
CCOC(=O)c1cccc(/N=N/Nc2cccc(C(=O)OCC)c2)c1,30.8 µM (inactive),53.8 µM (inactive),57.8 µM (inactive),> 100 µM (inactive),71.4 µM (inactive),61.7 µM (inactive),17.8 µM (inactive),16.4 µM (inactive),43.8 µM (inactive),43.2 µM (inactive),64 µM (inactive),20.9 µM (inactive),19.1 µM (inactive),> 100 µM (inactive),23.4 µM (inactive),30.1 µM (inactive),20.6 µM (inactive),20.1 µM (inactive),56.9 µM (inactive),71.8 µM (inactive)
N=C(N)N/N=C(\c1ccc(F)cc1)c1ccc(C(F)(F)F)cc1,< 0.01 µM (active),0.611 µM (active),0.505 µM (active),0.213 µM (active),0.132 µM (active),0.242 µM (active),0.33 µM (active),0.075 µM (active),0.851 µM (active),0.382 µM (active),0.332 µM (active),1.1 µM (active),0.22 µM (active),0.94 µM (active),0.466 µM (active),0.64 µM (active),0.573 µM (active),0.473 µM (active),1.16 µM (inactive),0.282 µM (active)
COc1cc(C)cc2c(-c3c(O)cc(O)c4c3C[C@H](C)N[C@H]4C)cc(-c3cc(-c4c(O)cc(O)c5c4C[C@H](C)N[C@H]5C)c4cc(C)cc(OC)c4c3O)c(O)c12,> 100 µM (inactive),> 100 µM (inactive),> 100 µM (inactive),> 100 µM (inactive),> 100 µM (inactive),> 100 µM (inactive),> 100 µM (inactive),54.3 µM (inactive),> 100 µM (inactive),> 100 µM (inactive),75.3 µM (inactive),> 100 µM (inactive),> 100 µM (inactive),> 100 µM (inactive),> 100 µM (inactive),> 100 µM (inactive),> 100 µM (inactive),> 100 µM (inactive),> 100 µM (inactive),> 100 µM (inactive)
CNC(=O)NC(CCCCNC(=O)OCc1ccccc1)C(=O)OCc1ccccc1 (stereo not given),20.3 µM (inactive),41.9 µM (inactive),59.8 µM (inactive),26.2 µM (inactive),31.3 µM (inactive),53 µM (inactive),> 42.9 µM (inactive),19.6 µM (inactive),27 µM (inactive),47.6 µM (inactive),> 100 µM (inactive),76.4 µM (inactive),27.9 µM (inactive),19.8 µM (inactive),15.9 µM (inactive),39.5 µM (inactive),> 100 µM (inactive),65.9 µM (inactive),16.9 µM (inactive),16.7 µM (inactive)
COc1cc2c(cc1OC)C(=O)/C(=C/c1ccccc1)C2,4.54 µM (inactive),> 100 µM (inactive),> 100 µM (inactive),16.9 µM (inactive),11.9 µM (inactive),> 71.3 µM (inactive),> 100 µM (inactive),> 87.7 µM (inactive),> 83 µM (inactive),> 74.8 µM (inactive),53.7 µM (inactive),> 85.5 µM (inactive),> 34.8 µM (inactive),> 100 µM (inactive),37.2 µM (inactive),> 100 µM (inactive),> 100 µM (inactive),> 100 µM (inactive),> 100 µM (inactive),30.5 µM (inactive)
CC(C)(C)OC(=O)NC(CSCc1ccc(C(=O)c2ccccc2)cc1)C(=O)N1CCN(CCCCN2c3ccccc3Sc3cc(N=[N+]=[N-])ccc32)CC1 (stereo not given),> 100 µM (inactive),> 100 µM (inactive),> 100 µM (inactive),> 100 µM (inactive),> 100 µM (inactive),> 100 µM (inactive),> 100 µM (inactive),> 100 µM (inactive),> 100 µM (inactive),> 100 µM (inactive),> 100 µM (inactive),> 100 µM (inactive),> 100 µM (inactive),> 100 µM (inactive),> 100 µM (inactive),> 100 µM (inactive),> 100 µM (inactive),> 100 µM (inactive),> 100 µM (inactive),> 100 µM (inactive)
CC(C)N1CN(c2ccccc2)C2(CCN(CCCC(=O)c3ccc(F)cc3)CC2)C1=O,2.97 µM (inactive),3.9 µM (inactive),12.7 µM (inactive),19.1 µM (inactive),25.6 µM (inactive),3.88 µM (inactive),9.14 µM (inactive),11.1 µM (inactive),14.7 µM (inactive),6.7 µM (inactive),21.1 µM (inactive),3.26 µM (inactive),28.4 µM (inactive),18.3 µM (inactive),2.55 µM (inactive),4.68 µM (inactive),12.7 µM (inactive),26.7 µM (inactive),2.74 µM (inactive),17.9 µM (inactive)
O=C(O)Cc1cccc2c(=O)c3cccc([N+](=O)[O-])c3oc12,> 100 µM (inactive),> 100 µM (inactive),> 100 µM (inactive),> 100 µM (inactive),> 100 µM (inactive),> 100 µM (inactive),> 100 µM (inactive),> 100 µM (inactive),> 100 µM (inactive),> 100 µM (inactive),> 100 µM (inactive),> 100 µM (inactive),> 100 µM (inactive),> 100 µM (inactive),> 100 µM (inactive),> 100 µM (inactive),> 100 µM (inactive),> 100 µM (inactive),> 100 µM (inactive),> 100 µM (inactive)
CCCCCCCCCCCCCCCCOP(=O)(O)OP(=O)(O)OCC1OC(n2cnc3c(N)ncnc32)C(O)C1O (stereo not given),> 100 µM (inactive),> 100 µM (inactive),> 100 µM (inactive),66.7 µM (inactive),46.8 µM (inactive),56 µM (inactive),> 100 µM (inactive),56.5 µM (inactive),43.9 µM (inactive),87.1 µM (inactive),36.1 µM (inactive),> 100 µM (inactive),98.4 µM (inactive),24.5 µM (inactive),> 100 µM (inactive),36.3 µM (inactive),34 µM (inactive),46 µM (inactive),> 100 µM (inactive),58.7 µM (inactive)
